Test results as given in patent US8912120B2, “Herbicidal compositions comprising 4-amino-3-chloro-5-fluoro-6-(4-chloro-2-fluoro-3-methoxyphenyl) pyridine-2-carboxylic acid or a derivative thereof and synthetic auxin herbicides” (Dow AgroSciences, LLC., priority 2012, dated 2014).
Where a name gives a salt, the structure may show the parent alone. Read-outs that look alike come from different tables or passages of the source.

Columns and labels:
CYPIR = test: Example I: postemergence foliar-applied herbicidal mixtures, direct seeded rice, CYPIR; type: in vivo, Cyperus iria (rice flatsedge)
Protocol: (§6) The soil matrix was contained in plastic pots with a volume of 1 quart and a surface area of 83.6 square centimeters (cm^2). […] The plants were grown for 8-22 days in a greenhouse with an approximate 14 h photoperiod which was maintained at about 29° C. during the day and 26° C. during the night. Nutrients (Peters Excel® 15-5-15 5-Ca 2-Mg and iron chelate) were applied in the irrigation solution as needed and water was added on a regular basis. Supplemental lighting was provided with overhead metal halide 1000-Watt lamps as necessary. The plants were employed for testing when they reached the first through fourth true leaf stage.
(§7) Treatments consisted of the acid or esters of 4-amino-3-chloro-5-fluoro-6-(4-chloro-2-fluoro-3-methoxy-phenyl)pyridine-2-carboxylic acid (Compound A), each formulated as an SC (suspension concentrate), and various herbicidal components alone and in combination. Forms of compound A were applied on an acid equivalent basis.
(§8) For treatments comprised of formulated compounds, measured amounts of compounds were placed individually in 25 mL glass vials and diluted in a volume of 1.25% (v/v) Agri-Dex® crop oil concentrated to obtain 12× stock solutions. […] Application solutions were prepared by adding an appropriate amount of each stock solution (e.g., 1 mL) and diluted to the appropriate final concentrations with the addition of 10 mL of an aqueous mixture of 1.25% (v/v) crop oil concentrate so that the final spray solutions contained 1.25+/−0.05% (v/v) crop oil concentrate.
(§9) All stock solutions and applications solutions were visually inspected for compound compatibility prior to application. Spray solutions were applied to the plant material with an overhead Mandel track sprayer equipped with a 8002E nozzles calibrated to deliver 187 L/ha over an application area of 0.503 m^2 at a spray height of 18 to 20 inches (46 to 50 cm) above average plant canopy height. Control plants were sprayed in the same manner with the solvent blank.
(§10) The treated plants and control plants were placed in a greenhouse as described above and watered by sub-irrigation to prevent wash-off of the test compounds. After approximately 3 weeks, the condition of the test plants as compared with that of the untreated plants was determined visually and scored on a scale of 0 to 100 percent where 0 corresponds to no injury or growth inhibition and 100 corresponds to complete kill.
(§11) Colby's equation was used to determine the herbicidal effects expected from the mixtures (Colby, S. R. 1967. Calculation of the synergistic and antagonistic response of herbicide combinations. Weeds 15:20-22).
(§12) The following equation was used to calculate the expected activity of mixtures containing two active ingredients, A and B: Expected=A+B−(A×B/100)
(§13) A=observed efficacy of active ingredient A at the same concentration as used in the mixture.
(§14) B=observed efficacy of active ingredient B at the same concentration as used in the mixture.

LEFCH [1] = test: Example I: postemergence foliar-applied herbicidal mixtures, direct seeded rice, LEFCH; type: in vivo, Leptochloa chinensis (Chinese sprangletop)
Protocol: as §6, §7, §8, §9, §10, §11, §12, §13, §14

IPOHE = test: Example I: postemergence foliar-applied herbicidal mixtures, direct seeded rice, IPOHE; type: in vivo, Ipomoea hederacea (ivyleaf morningglory)
Protocol: as §6, §7, §8, §9, §10, §11, §12, §13, §14

CYPRO = test: Example II: in-water applied herbicidal mixtures, weed control in transplanted paddy rice (greenhouse), CYPRO; type: in vivo, Cyperus rotundus (purple nutsedge)
Protocol: (§1) The prepared mud was dispensed in 365 mL aliquots into 16-ounce (oz.) non-perforated plastic pots with a surface area of 86.59 square centimeters (cm^2) leaving a headspace of 3 centimeters (cm) in each pot Mud was allowed to dry overnight prior to planting or transplanting. Rice seeds were planted in Sun Gro MetroMix® 306 planting mixture, which typically has a pH of 6.0 to 6.8 and an organic matter content of about 30 percent, in plastic plug trays. Seedlings at the second or third leaf stage of growth were transplanted into 840 mL of mud contained in 32-oz. non-perforated plastic pots with a surface area of 86.59 cm^2 4 days prior to herbicide application. […] Nutrients were added as Osmocote® (19:6:12, N:P:K^+ minor nutrients) at 2 g per 16-oz. pot and 4 g per 32-oz. pot.
(§2) Applications were made by injecting with a pipetter appropriate amounts of the application solutions, individually and sequentially, into the aqueous layer of the paddy. Control plants were treated in the same manner with the solvent blank. Applications were made so that all treated plant material received the same concentrations of acetone and crop oil concentrate.

ECHCG [2] = test: Example II: in-water applied herbicidal mixtures, transplanted paddy rice, ECHCG; type: in vivo, Echinochloa crus-galli (barnyardgrass)
Protocol: as §1, §2

ECHOR = test: Example II: in-water applied herbicidal mixtures, transplanted paddy rice, ECHOR; type: in vivo, Echinochloa oryzoides (early watergrass); details: for pest or weed control at 70 g/ha: 70 gae/ha; for pest or weed control at 140 g/ha: 140 gae/ha
Protocol: as §1, §2

LEFCH [3] = test: Example II: in-water applied herbicidal mixtures, transplanted paddy rice, LEFCH; type: in vivo, Leptochloa chinensis (Chinese sprangletop)
Protocol: as §1, §2

BRSNN = test: Example IV: postemergence foliar-applied herbicidal mixtures, cereal crops, BRSNN; type: in vivo, Brassica napus (volunteer canola); details: alone, foliar, 20-22 days
Protocol: (§3) Seeds of the desired test plant species were planted in Sun Gro MetroMix 306 planting mixture, which typically has a pH of 6.0 to 6.8 and an organic matter content of about 30 percent, in plastic pots with a surface area of 103.2 square centimeters (cm^2). […] The plants were grown for 7-36 days in a greenhouse with an approximate 14 hour photoperiod which was maintained at about 18° C. during the day and 17° C. during the night.
(§4) Spray solutions of the second cereal herbicide and experimental compound mixtures were prepared by adding the stock solutions to the appropriate amount of dilution solution to form 12 mL spray solution with active ingredients in two- and three-way combinations.

POLCO = test: Example IV: postemergence foliar-applied herbicidal mixtures, cereal crops, POLCO; type: in vivo, Polygonum convolvulus (wild buckwheat); details: alone, 140 gai/ha, foliar, 20-22 days
Protocol: as §3, §4

VIOTR = test: Example IV: postemergence foliar-applied herbicidal mixtures, cereal crops, VIOTR; type: in vivo, Viola tricolor (wild pansy); details: alone, 140 gai/ha, foliar, 20-22 days
Protocol: as §3, §4

CENMA = test: Example V: postemergence herbicidal activity of mixtures in forage crops, CENMA; type: in vivo, Centaurea maculosa (spotted knapweed); details: alone, foliar, approximately 21 days
Protocol: as §3, with “Seeds or root cuttings” for “Seeds”, “MetroMix®” for “MetroMix”, “126.6” for “103.2”, “14-60” for “7-36”, “approximately 28°” for “about 18°”, “24°” for “17°”
(§5) Spray solutions of the second herbicide or experimental compound mixtures were prepared by adding the stock solutions to the appropriate amount of dilution solution to form 12 mL spray solution with active ingredients in two-way combinations.

SINAR = test: Example V: postemergence herbicidal activity of mixtures in forage crops, SINAR; type: in vivo, Sinapis arvensis (wild mustard); details: alone, foliar, approximately 21 days
Protocol: as §3, with “Seeds or root cuttings” for “Seeds”, “MetroMix®” for “MetroMix”, “126.6” for “103.2”, “14-60” for “7-36”, “approximately 28°” for “about 18°”, “24°” for “17°”
as §5

SCPMA = test: Example II: in-water applied herbicidal mixtures, transplanted paddy rice, SCPMA; type: in vivo; details: 22 DAA
Protocol: as §1, §2

CASOB = test: Example V: postemergence herbicidal activity of mixtures in forage crops (greenhouse), CASOB; type: in vivo, Cassia obtusifolia (sicklepod); details: alone, 50 gae/ha, foliar, approximately 21 days
Protocol: as §3, with “Seeds or root cuttings” for “Seeds”, “MetroMix®” for “MetroMix”, “126.6” for “103.2”, “14-60” for “7-36”, “approximately 28°” for “about 18°”, “24°” for “17°”
as §5

CIRAR = test: Example V: postemergence herbicidal activity of mixtures in forage crops, CIRAR; type: in vivo, Cirsium arvense (Canada thistle); details: alone, 70 gae/ha, foliar, approximately 21 days
Protocol: as §3, with “Seeds or root cuttings” for “Seeds”, “MetroMix®” for “MetroMix”, “126.6” for “103.2”, “14-60” for “7-36”, “approximately 28°” for “about 18°”, “24°” for “17°”
as §5

SONAR = test: Example V: postemergence herbicidal activity of mixtures in forage crops, SONAR; type: in vivo, Sonchus arvensis (field sowthistle); details: alone, foliar, approximately 21 days
Protocol: as §3, with “Seeds or root cuttings” for “Seeds”, “MetroMix®” for “MetroMix”, “126.6” for “103.2”, “14-60” for “7-36”, “approximately 28°” for “about 18°”, “24°” for “17°”
as §5

DIGSA = test: Example I: postemergence foliar-applied herbicidal mixtures, direct seeded rice, DIGSA
ECHCG [4] = test: Example I: postemergence foliar-applied herbicidal mixtures, direct seeded rice, ECHCG
Protocol: as §6, §7, §8, §9, §10, §11, §12, §13, §14

ECHCO = test: Example I: postemergence foliar-applied herbicidal mixtures, direct seeded rice, ECHCO
Protocol: as §6, §7, §8, §9, §10, §11, §12, §13, §14

SCPJU = test: Example II: in-water applied herbicidal mixtures, transplanted paddy rice, SCPJU; type: in vivo, Schoenoplectus juncoides (Japanese bulrush); details: 25 DAA
Protocol: as §1, §2

[5] = 280 gai/ha, in-water application
[6] = Echinochloa oryzoides, 528 h, 22 DAA, read-out: Visual Weed Control (%) Obs
[7] = Echinochloa oryzoides, 600 h, 25 DAA, read-out: Visual Weed Control (%) Obs

Compound: COC(=O)c1nc(-c2ccc(Cl)c(OC)c2F)cc(N)c1Cl [Halauxifen-Methyl Ester, methyl 4-amino-3-chloro-6-(4-chloro-2-fluoro-3-methoxyphenyl)picolinate, reference compound]
- Visual Weed Control (%) - 20 DAA CYPIR Obs (CYPIR; 2.19 gae/ha): 25%
- Visual Weed Control (%) - 20 DAA CYPIR Obs (CYPIR; 4.38 gae/ha): 70%
- Visual Weed Control (%) - 20 DAA LEFCH Obs (LEFCH [1]; 2.19 gae/ha): 0%
- Visual Weed Control (%) - 20 DAA LEFCH Obs (LEFCH [1]; 4.38 gae/ha): 10%
- Visual Weed Control (%) - 20 DAA IPOHE Obs (IPOHE; 2.19 gae/ha): 0%
- Visual Weed Control (%) - 20 DAA IPOHE Obs (IPOHE; 4.38 gae/ha): 0%
- Visual Weed Control (%) Obs (CYPRO; 20 DAA, 4.38 gae/ha): 70%
- Visual Weed Control (%) Obs (CYPRO; 20 DAA, 8.75 gae/ha): 50%
- Visual Weed Control (%) Obs (ECHCG [2]; 20 DAA, 4.38 gae/ha): 50%
- Visual Weed Control (%) Obs (ECHCG [2]; 20 DAA, 8.75 gae/ha): 60%
- pest or weed control at 4.38 g/ha (ECHOR; Echinochloa oryzoides, 480 h, 20 DAA, 4.38 gae/ha, read-out: Visual Weed Control (%) Obs): 25%
- pest or weed control at 8.75 g/ha (ECHOR; Echinochloa oryzoides, 480 h, 20 DAA, 8.75 gae/ha, read-out: Visual Weed Control (%) Obs): 35%

Compound: CCCCC(CC)COC(=O)COc1ccc(Cl)cc1C (stereo not drawn) [MCPA EHE, 2-ethylhexyl 2-(4-chloro-2-methylphenoxy)acetate, reference compound]
- Visual Weed Control (%) - 19 DAA ECHOR Obs (ECHOR; [5]): 30%
- Visual Weed Control (%) Obs (LEFCH [3]; 19 DAA, 280 gai/ha): 0%
- Visual Weed Control (%) - 19 DAA LEFCH Obs (LEFCH [3]; [5]): 0%

Compound: Cc1cc(Cl)ccc1OCC(=O)O [MCPA, 2-(4-chloro-2-methylphenoxy)acetic acid]
- BRSNN Ob (observed value) (BRSNN; 140 gai/ha): 70%
- POLCO Ob (observed value) (POLCO): 0%
- VIOTR Ob (observed value) (VIOTR): 40%

Compound: Cc1cc(Cl)ccc1O[C@H](C)C(=O)O [Mecoprop, (2R)-2-(4-chloro-2-methylphenoxy)propanoic acid]
- BRSNN Ob (observed value) (BRSNN; 200 gai/ha): 70%

Compound: Nc1c(Cl)c(Cl)nc(C(=O)[O-])c1Cl.[K+] [Picloram K^+ Salt]
- CENMA Obs (observed value) (CENMA; 35 gae/ha): 20%
- CENMA Obs (observed value) (CENMA; 70 gae/ha): 50%
- SINAR Obs (observed value) (SINAR; 35 gae/ha): 30%
- SINAR Obs (observed value) (SINAR; 70 gae/ha): 70%

Compound: CCCCOCCOC(=O)COc1nc(Cl)c(Cl)cc1Cl [Triclopyr Butotyl Ester, 2-butoxyethyl 2-[(3,5,6-trichloro-2-pyridinyl)oxy]acetate, reference compound]
- Visual Weed Control (%) Obs (CYPRO; 22 DAA, 70 gae/ha): 0%
- Visual Weed Control (%) Obs (CYPRO; 22 DAA, 140 gae/ha): 40%
- Visual Weed Control (%) Obs (ECHCG [2]; 22 DAA, 70 gae/ha): 0%
- Visual Weed Control (%) Obs (ECHCG [2]; 22 DAA, 140 gae/ha): 0%
- pest or weed control at 70 g/ha (ECHOR; [6]): 0%
- pest or weed control at 140 g/ha (ECHOR; [6]): 0%
- Visual Weed Control (%) Obs (SCPMA; 70 gae/ha): 50%
- Visual Weed Control (%) Obs (SCPMA; 140 gae/ha): 60%
- CASOB Obs (observed value) (CASOB): 18%
- CENMA Obs (observed value) (CENMA; 35 gae/ha): 30%
- CENMA Obs (observed value) (CENMA; 70 gae/ha): 45%
- CIRAR Obs (observed value) (CIRAR): 40%
- SONAR Obs (observed value) (SONAR; 35 gae/ha): 60%
- SONAR Obs (observed value) (SONAR; 70 gae/ha): 60%
- Visual Weed Control (%) - 23 DAA DIGSA Obs (DIGSA; 35 gae/ha): 0%
- Visual Weed Control (%) - 23 DAA DIGSA Obs (DIGSA; 70 gae/ha): 0%
- Visual Weed Control (%) - 23 DAA DIGSA Obs (DIGSA; 140 gae/ha): 0%
- Visual Weed Control (%) - 23 DAA ECHCG Obs (ECHCG [4]; 35 gae/ha): 0%
- Visual Weed Control (%) - 23 DAA ECHCG Obs (ECHCG [4]; 70 gae/ha): 0%
- Visual Weed Control (%) - 23 DAA ECHCG Obs (ECHCG [4]; 140 gae/ha): 15%
- Visual Weed Control (%) - 23 DAA ECHCO Obs (ECHCO; 70 gae/ha): 0%
- Visual Weed Control (%) - 23 DAA ECHCO Obs (ECHCO; 140 gae/ha): 0%

Compound: O=C(O)COc1nc(Cl)c(Cl)cc1Cl [Triclopyr TEA Salt, 2-[(3,5,6-trichloro-2-pyridinyl)oxy]acetic acid compound with N,N-diethylethanamine, reference compound]
- Visual Weed Control (%) Obs (ECHCG [2]; 25 DAA, 70 gae/ha): 0%
- Visual Weed Control (%) Obs (ECHCG [2]; 25 DAA, 140 gae/ha): 0%
- pest or weed control at 280 g/ha (ECHOR; Echinochloa oryzoides, 456 h, 19 DAA, 280 gae/ha, read-out: Visual Weed Control (%) Obs): 35%
- pest or weed control at 70 g/ha (ECHOR; [7]): 0%
- pest or weed control at 140 g/ha (ECHOR; [7]): 0%
- Visual Weed Control (%) Obs (LEFCH [3]; 25 DAA, 70 gae/ha): 0%
- Visual Weed Control (%) Obs (LEFCH [3]; 25 DAA, 140 gae/ha): 0%
- Visual Weed Control (%) Obs (SCPJU; 70 gae/ha): 20%
- Visual Weed Control (%) Obs (SCPJU; 140 gae/ha): 30%
